Experimental data as given in the supplement of paper PMC10307832.

How the values were obtained:
Assay in all cases: relative viability (nuclei count vs DMSO), 5 days (fraction); higher = more cells survive
EHT 1864 + Tozasertib = compound: C1COCCN1CC2=CC(=O)C(=CO2)OCCCCCSC3=C4C=CC(=CC4=NC=C3)C(F)(F)F [EHT 1864] + Cc1cc(Nc2cc(N3CCN(C)CC3)nc(Sc3ccc(NC(=O)C4CC4)cc3)n2)n[nH]1 [Tozasertib] (partner 0.1 µM)
Procedure, shortened: (§1)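 Lung cancer cell lines in 1536-well plates got either a single drug or a fixed anchor-drug dose together with five library-drug doses (not always all listed) in √10 steps, by pin tool, on the day after seeding. Nuclei were counted after 5 days, and relative viability is the treated-to-vehicle ratio of nuclei counts. Values are medians of duplicate plates.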

EHT 1864 + Decitabine = compound: C1COCCN1CC2=CC(=O)C(=CO2)OCCCCCSC3=C4C=CC(=CC4=NC=C3)C(F)(F)F [EHT 1864] + Nc1ncn([C@H]2C[C@H](O)[C@@H](CO)O2)c(=O)n1 [Decitabine] (partner 2 µM)
Procedure, shortened: as §1

EHT 1864 + Lapatinib = compound: C1COCCN1CC2=CC(=O)C(=CO2)OCCCCCSC3=C4C=CC(=CC4=NC=C3)C(F)(F)F [EHT 1864] + CS(=O)(=O)CCNCc1ccc(-c2ccc3ncnc(Nc4ccc(OCc5cccc(F)c5)c(Cl)c4)c3c2)o1 [Lapatinib] (partner 2 µM)
Procedure, shortened: as §1

EHT 1864 + Crizotinib = compound: C1COCCN1CC2=CC(=O)C(=CO2)OCCCCCSC3=C4C=CC(=CC4=NC=C3)C(F)(F)F [EHT 1864] + C[C@@H](Oc1cc(-c2cnn(C3CCNCC3)c2)cnc1N)c1c(Cl)ccc(F)c1Cl [Crizotinib] (partner 1 µM)
Procedure, shortened: as §1

| Cell Line | relative viability (EHT 1864 + Tozasertib; first compound 0.04 µM) | relative viability (EHT 1864 + Tozasertib; first compound 0.1265 µM) | relative viability (EHT 1864 + Tozasertib; first compound 0.4 µM) | relative viability (EHT 1864 + Tozasertib; first compound 1.265 µM) | relative viability (EHT 1864 + Tozasertib; first compound 4 µM) | relative viability (EHT 1864 + Decitabine; first compound 0.04 µM) | relative viability (EHT 1864 + Decitabine; first compound 0.1265 µM) | relative viability (EHT 1864 + Decitabine; first compound 0.4 µM) | relative viability (EHT 1864 + Decitabine; first compound 1.265 µM) | relative viability (EHT 1864 + Decitabine; first compound 4 µM) | relative viability (EHT 1864 + Lapatinib; first compound 0.04 µM) | relative viability (EHT 1864 + Lapatinib; first compound 0.4 µM) | relative viability (EHT 1864 + Lapatinib; first compound 1.265 µM) | relative viability (EHT 1864 + Lapatinib; first compound 4 µM) | relative viability (EHT 1864 + Crizotinib; first compound 0.04 µM) | relative viability (EHT 1864 + Crizotinib; first compound 0.4 µM) | relative viability (EHT 1864 + Crizotinib; first compound 1.265 µM) | relative viability (EHT 1864 + Crizotinib; first compound 4 µM) | relative viability (EHT 1864 + Lapatinib; first compound 0.1265 µM) | relative viability (EHT 1864 + Crizotinib; first compound 0.1265 µM) |
| --- | --- | --- | --- | --- | --- | --- | --- | --- | --- | --- | --- | --- | --- | --- | --- | --- | --- | --- | --- | --- |
| NCI-H23 | 0.397 | 0.372 | 0.373 | 0.291 | 0.367 | 0.297 | 0.29 | 0.314 | 0.343 | 0.393 | 0.927 | 1.05 | 0.938 | 0.928 | 0.488 | 0.513 | 0.496 | 0.5 | – | – |
| NCI-H322M | 0.477 | 0.457 | 0.448 | 0.461 | 0.51 | 0.659 | 0.692 | 0.698 | 0.679 | 0.724 | 0.613 | 0.634 | 0.522 | 0.629 | 0.927 | 0.849 | 0.995 | 1.05 | 0.527 | 0.837 |
| NCI-H358 | 0.113 | 0.128 | 0.104 | 0.102 | 0.0985 | 0.238 | 0.241 | 0.212 | 0.263 | 0.192 | 0.477 | 0.441 | 0.413 | 0.434 | 0.604 | 0.616 | 0.517 | 0.579 | – | – |
| NCI-H460 | 0.398 | 0.453 | 0.384 | 0.174 | 0.152 | – | 0.405 | 0.495 | 0.43 | 0.255 | 0.891 | 0.975 | 0.845 | 0.885 | 0.805 | 0.769 | 0.888 | 0.799 | 0.897 | 0.85 |
| NCI-H520 | 0.377 | 0.376 | 0.388 | 0.483 | 0.377 | 0.545 | 0.496 | 0.535 | 0.493 | 0.445 | 0.833 | 0.834 | 0.913 | 0.694 | 0.657 | 0.642 | 0.733 | 0.804 | 0.743 | 0.599 |
| NCI-H596 | 0.843 | 0.733 | 0.869 | 1.06 | 0.754 | 0.937 | 1.05 | 1.14 | 1.09 | 1.24 | 1.16 | 1.12 | 1.01 | 1.09 | 1.02 | 0.931 | 0.896 | 0.973 | 0.968 | 1.04 |
| NCI-H647 | 0.218 | 0.169 | 0.414 | 0.175 | 0.132 | 0.32 | 0.288 | 0.311 | 0.453 | 0.404 | 0.856 | 0.923 | 0.957 | 1.14 | 1 | 0.903 | 0.992 | 0.911 | 0.842 | 0.922 |
| NCI-H650 | 0.671 | 0.667 | 0.708 | 0.642 | 0.722 | 0.372 | 0.312 | 0.356 | 0.356 | 0.34 | 0.797 | 1.33 | 1.07 | 0.989 | 0.71 | 0.805 | 0.7 | 0.698 | – | – |
| NCI-H661 | 0.385 | 0.335 | 0.355 | 0.33 | 0.379 | 0.609 | 0.527 | 0.581 | 0.576 | 0.514 | 0.429 | 0.511 | 0.429 | 0.503 | 1.03 | 0.882 | 0.85 | 0.879 | 0.488 | 1.03 |
| NCI-H727 | 0.574 | 0.573 | 0.611 | 0.503 | 0.592 | 0.98 | 0.639 | 0.85 | 0.811 | 0.914 | 0.841 | 0.635 | – | 0.881 | 0.803 | 0.699 | – | 0.786 | 0.743 | 0.713 |
| NCI-H838 | 0.244 | 0.227 | 0.26 | 0.241 | 0.223 | 0.472 | 0.438 | 0.442 | 0.445 | 0.431 | 0.91 | 0.979 | 0.938 | 0.932 | 0.74 | 0.911 | 0.826 | 0.802 | 0.799 | 0.724 |
| NCI-H1355 | 0.558 | 0.452 | 0.582 | 0.391 | 0.464 | 0.391 | 0.326 | 0.355 | 0.369 | 0.328 | 1.02 | 0.889 | 1.02 | 1.04 | 1.12 | 1.06 | 1.07 | 1.03 | 0.819 | 0.875 |
| NCI-H1437 | 0.428 | 0.303 | 0.4 | 0.343 | 0.377 | 0.607 | 0.523 | 0.542 | 0.566 | 0.518 | 0.793 | 0.678 | 0.636 | 0.62 | 0.87 | 0.845 | 0.838 | 0.642 | 0.723 | 0.918 |
| NCI-H1650 | – | – | 0.385 | 0.355 | 0.242 | 0.411 | 0.385 | 0.435 | 0.47 | 0.5 | 0.741 | 0.812 | 0.841 | 0.589 | 0.857 | 0.947 | 0.911 | 1.15 | 0.443 | 0.653 |
| NCI-H1651 | 0.631 | 0.705 | 0.549 | 0.479 | 0.523 | 0.55 | 0.695 | 0.631 | 0.652 | 0.594 | 0.856 | 0.843 | 0.824 | 0.912 | 0.865 | 0.826 | 0.801 | 0.843 | 0.788 | 0.798 |
| NCI-H1666 | 0.646 | 0.591 | 0.543 | 0.647 | 0.554 | 0.755 | 0.742 | 0.712 | 0.768 | 0.865 | 0.822 | 0.584 | 0.775 | 0.841 | 0.771 | 1.2 | 0.965 | 1.01 | 0.484 | 0.867 |
